Assay results reported in ChEMBL document CHEMBL4507329, “Data for DCP probe BTZO-1” (2021).

Experiments:
[1] = system: Tyrosine-protein kinase ABL1 (Homo sapiens), P00519 [T315I]; settings: Compound concentration 1000.0 nM
[2] = target: Activin receptor type-2A (Homo sapiens) (UniProt P27037); settings: Compound concentration 1000.0 nM
[3] = target: Bone morphogenetic protein receptor type-2 (Homo sapiens) (UniProt Q13873); settings: Compound concentration 1000.0 nM
[4] = target: Calcium/calmodulin-dependent protein kinase type II subunit beta (Homo sapiens) (UniProt Q13554); settings: Compound concentration 1000.0 nM
[5] = target: Calcium/calmodulin-dependent protein kinase kinase 2 (Homo sapiens) (UniProt Q96RR4); settings: Compound concentration 1000.0 nM
Chain of Calcium/calmodulin-dependent protein kinase kinase 2 (Homo sapiens) (Q96RR4 2-588 limits assumed): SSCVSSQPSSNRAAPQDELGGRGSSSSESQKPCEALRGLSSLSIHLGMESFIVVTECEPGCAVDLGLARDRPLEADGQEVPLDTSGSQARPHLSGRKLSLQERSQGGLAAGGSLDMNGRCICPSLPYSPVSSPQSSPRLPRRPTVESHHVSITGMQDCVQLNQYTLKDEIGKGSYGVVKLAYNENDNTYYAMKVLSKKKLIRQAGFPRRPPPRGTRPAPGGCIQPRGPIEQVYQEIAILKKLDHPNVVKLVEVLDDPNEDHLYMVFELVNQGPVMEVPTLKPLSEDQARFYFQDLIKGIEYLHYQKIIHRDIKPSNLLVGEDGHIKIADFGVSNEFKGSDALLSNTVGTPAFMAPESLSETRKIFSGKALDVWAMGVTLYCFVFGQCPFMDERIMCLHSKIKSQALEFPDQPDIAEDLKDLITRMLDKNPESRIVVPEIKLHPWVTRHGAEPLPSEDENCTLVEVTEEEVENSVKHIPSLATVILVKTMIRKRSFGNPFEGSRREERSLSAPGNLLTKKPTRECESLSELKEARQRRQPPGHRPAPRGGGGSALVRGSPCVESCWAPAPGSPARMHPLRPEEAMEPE

[6] = target: Cyclin-dependent kinase 11B (Homo sapiens) (UniProt P21127); settings: Compound concentration 1000.0 nM
Chain of Cyclin-dependent kinase 11B (Homo sapiens) (P21127 whole entry): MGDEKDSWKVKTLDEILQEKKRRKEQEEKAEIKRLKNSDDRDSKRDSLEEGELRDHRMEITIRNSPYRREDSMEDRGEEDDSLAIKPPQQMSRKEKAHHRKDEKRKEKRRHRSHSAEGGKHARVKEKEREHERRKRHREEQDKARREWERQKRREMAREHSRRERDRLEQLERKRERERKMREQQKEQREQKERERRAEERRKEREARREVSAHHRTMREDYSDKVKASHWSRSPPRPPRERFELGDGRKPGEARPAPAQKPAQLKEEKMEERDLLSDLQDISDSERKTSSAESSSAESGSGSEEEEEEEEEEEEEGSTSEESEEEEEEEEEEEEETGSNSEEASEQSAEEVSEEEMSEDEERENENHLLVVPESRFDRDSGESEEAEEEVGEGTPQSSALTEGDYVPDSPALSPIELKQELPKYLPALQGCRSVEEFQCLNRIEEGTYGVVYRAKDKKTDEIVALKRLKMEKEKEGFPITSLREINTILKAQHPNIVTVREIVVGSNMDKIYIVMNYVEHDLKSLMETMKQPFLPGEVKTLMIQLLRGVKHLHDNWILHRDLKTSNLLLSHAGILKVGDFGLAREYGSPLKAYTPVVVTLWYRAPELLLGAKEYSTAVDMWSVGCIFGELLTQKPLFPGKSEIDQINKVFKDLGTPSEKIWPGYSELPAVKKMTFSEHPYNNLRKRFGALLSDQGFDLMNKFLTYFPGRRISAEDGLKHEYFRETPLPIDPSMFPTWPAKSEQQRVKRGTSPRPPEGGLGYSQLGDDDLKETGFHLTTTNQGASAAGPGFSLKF

[7] = target: Cyclin-dependent kinase 13 (Homo sapiens) (UniProt Q14004); settings: Compound concentration 1000.0 nM
[8] = target: Cyclin-dependent kinase-like 1 (Homo sapiens) (UniProt Q00532); settings: Compound concentration 1000.0 nM
[9] = target: Casein kinase I isoform gamma-3 (Homo sapiens) (UniProt Q9Y6M4); settings: Compound concentration 1000.0 nM
Chain of Casein kinase I isoform gamma-3 (Homo sapiens) (Q9Y6M4 whole entry, looked up, canonical isoform): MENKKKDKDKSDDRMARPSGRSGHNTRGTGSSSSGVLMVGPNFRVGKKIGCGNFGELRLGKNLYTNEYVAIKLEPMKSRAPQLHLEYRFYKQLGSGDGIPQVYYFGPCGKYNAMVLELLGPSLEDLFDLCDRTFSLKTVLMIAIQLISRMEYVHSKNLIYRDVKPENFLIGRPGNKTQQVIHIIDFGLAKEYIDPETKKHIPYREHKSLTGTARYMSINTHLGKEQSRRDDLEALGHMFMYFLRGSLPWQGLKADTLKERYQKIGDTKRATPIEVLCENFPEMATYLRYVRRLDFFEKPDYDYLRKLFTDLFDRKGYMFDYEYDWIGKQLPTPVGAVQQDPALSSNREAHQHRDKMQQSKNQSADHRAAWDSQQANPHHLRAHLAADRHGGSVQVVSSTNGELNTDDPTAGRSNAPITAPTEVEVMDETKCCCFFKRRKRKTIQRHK

[10] = target: Mitogen-activated protein kinase kinase kinase 12 (Homo sapiens) (UniProt Q12852); settings: Compound concentration 1000.0 nM
[11] = target: Ephrin type-A receptor 3 (Homo sapiens) (UniProt P29320); settings: Compound concentration 1000.0 nM
[12] = target: Ephrin type-A receptor 5 (Homo sapiens) (UniProt P54756); settings: Compound concentration 1000.0 nM
Chain of Ephrin type-A receptor 5 (Homo sapiens) (P54756 whole entry): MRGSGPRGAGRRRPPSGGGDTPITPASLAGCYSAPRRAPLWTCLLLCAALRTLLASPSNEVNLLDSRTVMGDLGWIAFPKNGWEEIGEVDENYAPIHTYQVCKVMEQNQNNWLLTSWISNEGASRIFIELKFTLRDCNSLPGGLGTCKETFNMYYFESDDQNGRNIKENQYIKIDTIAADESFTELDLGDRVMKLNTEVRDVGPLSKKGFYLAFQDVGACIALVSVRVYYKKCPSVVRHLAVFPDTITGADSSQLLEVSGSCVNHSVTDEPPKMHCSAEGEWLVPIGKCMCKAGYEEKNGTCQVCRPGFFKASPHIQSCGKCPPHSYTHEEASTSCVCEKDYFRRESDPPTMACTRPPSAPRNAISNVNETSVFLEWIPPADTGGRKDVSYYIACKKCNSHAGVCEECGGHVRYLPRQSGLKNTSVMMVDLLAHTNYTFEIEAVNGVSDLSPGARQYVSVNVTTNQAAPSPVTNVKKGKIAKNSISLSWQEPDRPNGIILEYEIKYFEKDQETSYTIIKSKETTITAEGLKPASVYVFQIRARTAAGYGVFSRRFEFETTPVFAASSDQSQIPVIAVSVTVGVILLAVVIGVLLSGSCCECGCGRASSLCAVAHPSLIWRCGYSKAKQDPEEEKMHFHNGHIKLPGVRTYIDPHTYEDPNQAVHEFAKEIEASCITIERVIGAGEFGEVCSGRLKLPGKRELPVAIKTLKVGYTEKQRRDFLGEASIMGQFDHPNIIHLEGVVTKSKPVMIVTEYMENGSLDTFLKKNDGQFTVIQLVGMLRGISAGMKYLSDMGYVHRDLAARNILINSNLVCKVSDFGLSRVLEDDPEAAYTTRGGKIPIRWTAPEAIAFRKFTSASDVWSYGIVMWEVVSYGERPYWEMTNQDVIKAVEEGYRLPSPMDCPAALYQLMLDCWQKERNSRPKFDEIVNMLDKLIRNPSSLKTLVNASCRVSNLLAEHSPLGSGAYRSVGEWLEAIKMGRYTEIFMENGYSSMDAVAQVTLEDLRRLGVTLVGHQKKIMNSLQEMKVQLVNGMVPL

[13] = target: Ephrin type-B receptor 2 (Homo sapiens) (UniProt P29323); settings: Compound concentration 1000.0 nM
[14] = target: Receptor tyrosine-protein kinase erbB-4 (Homo sapiens) (UniProt Q15303); settings: Compound concentration 1000.0 nM
[15] = target: Fibroblast growth factor receptor 3 (Homo sapiens) (UniProt P22607); settings: Compound concentration 1000.0 nM
Chain of Fibroblast growth factor receptor 3 (Homo sapiens) (P22607 23-806 limits assumed): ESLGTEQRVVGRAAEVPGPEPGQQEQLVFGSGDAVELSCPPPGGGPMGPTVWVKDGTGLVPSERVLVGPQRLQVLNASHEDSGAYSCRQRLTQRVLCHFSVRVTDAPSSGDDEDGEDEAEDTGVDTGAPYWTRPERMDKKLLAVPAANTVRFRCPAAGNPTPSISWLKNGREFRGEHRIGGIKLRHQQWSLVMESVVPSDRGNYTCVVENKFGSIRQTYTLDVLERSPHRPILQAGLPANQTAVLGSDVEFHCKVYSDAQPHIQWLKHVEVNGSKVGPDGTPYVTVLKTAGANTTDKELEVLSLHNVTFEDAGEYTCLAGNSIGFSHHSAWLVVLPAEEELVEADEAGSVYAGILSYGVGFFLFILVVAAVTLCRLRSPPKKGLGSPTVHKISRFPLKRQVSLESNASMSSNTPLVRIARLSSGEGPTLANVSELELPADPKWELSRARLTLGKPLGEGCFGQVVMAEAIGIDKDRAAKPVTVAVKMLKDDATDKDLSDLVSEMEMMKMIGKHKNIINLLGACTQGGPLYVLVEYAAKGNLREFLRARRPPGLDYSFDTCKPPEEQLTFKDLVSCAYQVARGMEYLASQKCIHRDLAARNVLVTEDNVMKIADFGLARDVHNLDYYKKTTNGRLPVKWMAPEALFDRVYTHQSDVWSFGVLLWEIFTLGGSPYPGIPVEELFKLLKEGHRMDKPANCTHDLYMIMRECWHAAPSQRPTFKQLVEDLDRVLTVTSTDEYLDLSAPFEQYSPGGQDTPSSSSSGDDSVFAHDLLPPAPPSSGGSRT

[16] = target: Tyrosine-protein kinase Fgr (Homo sapiens) (UniProt P09769); settings: Compound concentration 1000.0 nM
[17] = system: Receptor-type tyrosine-protein kinase FLT3 (Homo sapiens), P36888 [D835Y]; settings: Compound concentration 1000.0 nM
[18] = target: Receptor-type tyrosine-protein kinase FLT3 (Homo sapiens) (UniProt P36888); settings: Compound concentration 1000.0 nM
[19] = target: Serine/threonine-protein kinase LATS2 (Homo sapiens) (UniProt Q9NRM7); settings: Compound concentration 1000.0 nM
[20] = target: Serine/threonine-protein kinase 10 (Homo sapiens) (UniProt O94804); settings: Compound concentration 1000.0 nM
[21] = target: Dual specificity mitogen-activated protein kinase kinase 1 (Homo sapiens) (UniProt Q02750); settings: Compound concentration 1000.0 nM
Chain of Dual specificity mitogen-activated protein kinase kinase 1 (Homo sapiens) (Q02750 whole entry): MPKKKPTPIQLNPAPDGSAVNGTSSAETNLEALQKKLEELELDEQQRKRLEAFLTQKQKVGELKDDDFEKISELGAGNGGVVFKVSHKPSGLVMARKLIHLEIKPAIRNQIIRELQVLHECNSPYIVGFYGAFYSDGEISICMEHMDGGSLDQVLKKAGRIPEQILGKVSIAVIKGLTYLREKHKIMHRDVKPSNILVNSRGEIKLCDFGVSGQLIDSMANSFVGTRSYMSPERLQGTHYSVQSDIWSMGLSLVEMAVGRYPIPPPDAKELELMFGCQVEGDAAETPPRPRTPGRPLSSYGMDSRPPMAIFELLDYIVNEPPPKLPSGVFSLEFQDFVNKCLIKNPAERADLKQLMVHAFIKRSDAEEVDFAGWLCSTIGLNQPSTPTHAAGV

[22] = target: MAP kinase-interacting serine/threonine-protein kinase 1 (Homo sapiens) (UniProt Q9BUB5); settings: Compound concentration 1000.0 nM
[23] = target: Serine/threonine-protein kinase 24 (Homo sapiens) (UniProt Q9Y6E0); settings: Compound concentration 1000.0 nM
[24] = target: Serine/threonine-protein kinase Nek5 (Homo sapiens) (UniProt Q6P3R8); settings: Compound concentration 1000.0 nM
[25] = target: Cyclin-dependent kinase 17 (Homo sapiens) (UniProt Q00537); settings: Compound concentration 1000.0 nM
[26] = target: Cyclin-dependent kinase 14 (Homo sapiens) (UniProt O94921); settings: Compound concentration 1000.0 nM
[27] = system: Phosphatidylinositol 4,5-bisphosphate 3-kinase catalytic subunit alpha isoform (Homo sapiens), P42336 [E542K]; settings: Compound concentration 1000.0 nM
[28] = target: Phosphatidylinositol 4,5-bisphosphate 3-kinase catalytic subunit beta isoform (Homo sapiens) (UniProt P42338); settings: Compound concentration 1000.0 nM
[29] = target: Phosphatidylinositol 4-phosphate 5-kinase type-1 alpha (Homo sapiens) (UniProt Q99755); settings: Compound concentration 1000.0 nM
Chain of Phosphatidylinositol 4-phosphate 5-kinase type-1 alpha (Homo sapiens) (Q99755 whole entry): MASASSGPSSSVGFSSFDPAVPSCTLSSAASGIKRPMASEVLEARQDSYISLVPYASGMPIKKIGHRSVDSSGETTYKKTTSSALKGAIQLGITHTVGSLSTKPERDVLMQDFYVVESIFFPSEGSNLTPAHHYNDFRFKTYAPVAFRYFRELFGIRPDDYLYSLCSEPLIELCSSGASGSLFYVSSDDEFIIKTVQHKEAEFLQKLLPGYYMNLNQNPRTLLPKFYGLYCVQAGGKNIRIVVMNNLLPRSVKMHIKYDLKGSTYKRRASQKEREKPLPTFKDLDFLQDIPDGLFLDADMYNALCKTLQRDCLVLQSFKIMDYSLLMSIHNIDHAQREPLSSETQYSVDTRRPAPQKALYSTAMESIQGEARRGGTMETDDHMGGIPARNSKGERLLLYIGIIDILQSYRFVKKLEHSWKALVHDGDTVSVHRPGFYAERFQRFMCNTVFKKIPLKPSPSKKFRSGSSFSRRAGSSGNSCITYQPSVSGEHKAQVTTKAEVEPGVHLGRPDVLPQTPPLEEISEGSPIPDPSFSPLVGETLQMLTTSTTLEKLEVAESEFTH

[30] = target: Phosphatidylinositol 5-phosphate 4-kinase type-2 beta (Homo sapiens) (UniProt P78356); settings: Compound concentration 1000.0 nM
[31] = target: Membrane-associated tyrosine- and threonine-specific cdc2-inhibitory kinase (Homo sapiens) (UniProt Q99640); settings: Compound concentration 1000.0 nM
[32] = target: Serine/threonine-protein kinase PLK3 (Homo sapiens) (UniProt Q9H4B4); settings: Compound concentration 1000.0 nM
[33] = target: Protein kinase C theta type (Homo sapiens) (UniProt Q04759); settings: Compound concentration 1000.0 nM
[34] = system: Proto-oncogene tyrosine-protein kinase receptor Ret (Homo sapiens), P07949 [V804M]; settings: Compound concentration 1000.0 nM
[35] = target: Serine/threonine-protein kinase SBK1 (Homo sapiens) (UniProt Q52WX2); settings: Compound concentration 1000.0 nM
[36] = target: Serine/threonine-protein kinase 33 (Homo sapiens) (UniProt Q9BYT3); settings: Compound concentration 1000.0 nM
[37] = target: Serine/threonine-protein kinase 35 (Homo sapiens) (UniProt Q8TDR2); settings: Compound concentration 1000.0 nM
[38] = target: Tyrosine-protein kinase SYK (Homo sapiens) (UniProt P43405); settings: Compound concentration 1000.0 nM
[39] = target: TGF-beta receptor type-2 (Homo sapiens) (UniProt P37173); settings: Compound concentration 1000.0 nM
[40] = target: Serine/threonine-protein kinase TNNI3K (Homo sapiens) (UniProt Q59H18); settings: Compound concentration 1000.0 nM
[41] = target: Serine/threonine-protein kinase VRK2 (Homo sapiens) (UniProt Q86Y07); settings: Compound concentration 1000.0 nM
[42] = target: Serine/threonine-protein kinase 25 (Homo sapiens) (UniProt O00506); settings: Compound concentration 1000.0 nM
[43] = target: D(3) dopamine receptor (Homo sapiens) (UniProt P35462); settings: Compound concentration 10.0 uM
[44] = target: Histamine H2 receptor (Homo sapiens) (UniProt P25021); settings: Compound concentration 10.0 uM
Chain of Histamine H2 receptor (Homo sapiens) (P25021 whole entry): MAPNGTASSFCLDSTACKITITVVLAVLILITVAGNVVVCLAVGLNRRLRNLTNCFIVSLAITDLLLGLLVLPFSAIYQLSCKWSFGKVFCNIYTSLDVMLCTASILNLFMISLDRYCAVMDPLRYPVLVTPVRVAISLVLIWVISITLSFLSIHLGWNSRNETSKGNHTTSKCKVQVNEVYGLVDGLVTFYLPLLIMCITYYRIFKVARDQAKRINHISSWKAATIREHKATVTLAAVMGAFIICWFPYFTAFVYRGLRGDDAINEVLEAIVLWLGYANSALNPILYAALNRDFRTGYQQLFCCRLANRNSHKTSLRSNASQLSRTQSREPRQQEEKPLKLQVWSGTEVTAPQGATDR

[45] = target: Muscarinic acetylcholine receptor M2 (Homo sapiens) (UniProt P08172); settings: Compound concentration 10.0 uM

O=C1NC(c2ccccn2)Sc2ccccc21 (stereo not given) [BTZO-4]
inactive: residual activity [1] 100% | residual activity [2] 100% | residual activity [3] 80% | residual activity [4] 100% | residual activity [5] 95% | residual activity [6] 100% | residual activity [7] 90% | residual activity [8] 75% | residual activity [9] 100% | residual activity [10] 100% | residual activity [11] 100% | residual activity [12] 85% | residual activity [13] 71% | residual activity [14] 77% | residual activity [15] 97% | residual activity [16] 100% | residual activity [17] 86% | residual activity [18] 92% | residual activity [19] 70% | residual activity [20] 100% | residual activity [21] 100% | residual activity [22] 82% | residual activity [23] 94% | residual activity [24] 72% | residual activity [25] 100% | residual activity [26] 100% | residual activity [27] 100% | residual activity [28] 100% | residual activity [29] 100% | residual activity [30] 100% | residual activity [31] 100% | residual activity [32] 88% | residual activity [33] 76% | residual activity [34] 86% | residual activity [35] 100% | residual activity [36] 93% | residual activity [37] 99% | residual activity [38] 75% | residual activity [39] 85% | residual activity [40] 87% | residual activity [41] 77% | residual activity [42] 78% | inhibition [43] 27.8% | inhibition [44] 24.8% | inhibition [45] 13.7%

O=c1nc(-c2ccccn2)sc2ccccc12 [BTZO-1]
inactive: residual activity [1] 100% | residual activity [2] 91% | residual activity [3] 100% | residual activity [4] 100% | residual activity [5] 90% | residual activity [6] 100% | residual activity [7] 75% | residual activity [8] 87% | residual activity [9] 100% | residual activity [10] 100% | residual activity [11] 87% | residual activity [12] 94% | residual activity [13] 100% | residual activity [14] 96% | residual activity [15] 83% | residual activity [16] 100% | residual activity [17] 100% | residual activity [18] 98% | residual activity [19] 79% | residual activity [20] 99% | residual activity [21] 100% | residual activity [22] 89% | residual activity [23] 100% | residual activity [24] 78% | residual activity [25] 100% | residual activity [26] 100% | residual activity [27] 89% | residual activity [28] 100% | residual activity [29] 100% | residual activity [30] 100% | residual activity [31] 100% | residual activity [32] 82% | residual activity [33] 90% | residual activity [34] 100% | residual activity [35] 100% | residual activity [36] 87% | residual activity [37] 79% | residual activity [38] 97% | residual activity [39] 100% | residual activity [40] 87% | residual activity [41] 74% | residual activity [42] 100% | inhibition [43] 13.6% | inhibition [44] 24.4% | inhibition [45] 5.17%
